Our source for the Vd, AUC(0-inf) and concentration values is ChEMBL document CHEMBL1156955 (Bioorg Med Chem Lett, 2010).

The nature of data set [1]: Volume of distribution in mouse at 5 mg/kg, iv. In kind it is ADME, organism-based. On the set-up: dose 5 mg/kg, route intravenous. Conditions: in vivo.
Data set [2] in a line: AUC (0 to infinity) in mouse at 5 mg/kg, iv. The following applies: plasma. On the set-up: time infinity, dose 5 mg/kg, route intravenous. In kind it is ADME, organism-based.
Data set [3] in a line: Drug level in plasma of nude mouse bearing human MDA-MB-361 cells at 25 mg/kg, iv after 8 hrs. It counts as ADME, organism-based. Further details: dose 25 mg/kg, route intravenous. Conditions: read-out: Drug uptake.
A short description of data set [4]: Drug level in tumor of human MDA-MB-361 cells xenografted nude mouse at 25 mg/kg, iv after 8 hrs. In kind it is ADME, organism-based, Neoplasm. Further details: dose 25 mg/kg, route intravenous. The following applies: read-out: Drug uptake.

`CC(C)N1CCN(C(=O)c2ccc(NC(=O)Nc3ccc(-c4nc(C5CCOCC5)nc(N5C6CCC5COC6)n4)cc3)cc2)CC1`: in data set [1], the Vd turned out to be 1.3 L/kg. In data set [2], the AUC(0-inf) was 16700 ng·h/mL. Also, the concentration at 8 h worked out at 2160 ng/mL in data set [3] and 2470 ng/mL in data set [4].
